According to patent US20030166653A1, “Novel form of (r)-n-[5-methyl-8-(4-methylpiperazin-1-yl)-1,2,3,4-tetrahydro-2-naphthyl]-4-morpholinobenzamide” (priority 2003, published 2003):
One block for each compound: values may come before it.

Legend:
Format in all cases: physicochemical
[1] = Stability of solution in 0.1 mM HCl, pH 4.1, HPLC assay
Text: (§1) The stability of [5-Methyl-8-(4-methylpiperazin-1-yl)-1,2,3,4-tetrahydro-2-naphtyl]-4-morpholinobenzamide(=“Base” in tables below) and (R)-N-[5-methyl-8-(4-methylpiperazin-1-yl)-1,2,3,4-tetrahydro-2-naphtyl]-4-morpholinobenzamide monohydrobromide Form A (=“Form A” in tables below), as bulk drug substance and in solutions at different pH levels after exposure to daylight and at elevated temperatures, has been studied. Three solutions were made from each batch of drug substance. One solution in pure water, one in 0.1 mM HCl (pH 4.1) and one in 0.1 M HCl (pH 1.1). The content of [5-Methyl-8-(4-methylpiperazin-1-yl)-1,2,3,4-tetrahydro-2-naphtyl]-4-morpholinobenzamide (=Base) was determined by HPLC, all results are calculated as the base.

[2] = Water sorption by dynamic vapour sorption (DVS); conditions: for hygroscopicity / water uptake in words: solid state characterization, monohydrobromide
[3] = Stability of bulk drug substance (HPLC purity) in daylight and at 90° C.; conditions: for HPLC Purity (100% - related substances): bulk
Protocol: The stability of [5-Methyl-8-(4-methylpiperazin-1-yl)-1,2,3,4-tetrahydro-2-naphtyl]-4-morpholinobenzamide(=“Base” in tables below) and (R)-N-[5-methyl-8-(4-methylpiperazin-1-yl)-1,2,3,4-tetrahydro-2-naphtyl]-4-morpholinobenzamide monohydrobromide Form A (=“Form A” in tables below), as bulk drug substance and in solutions at different pH levels after exposure to daylight and at elevated temperatures, has been studied. The bulk substances are very stable, both in daylight and at 90° C. There are no significant differences between the HPLC purity of [5-Methyl-8-(4-methylpiperazin-1-yl)-1,2,3,4-tetrahydro-2-naphtyl]-4-morpholinobenzamide (=Base) and (R)-N-[5-methyl-8-(4-methylpiperazin-1-yl)-1,2,3,4-tetrahydro-2-naphtyl]-4-morpholinobenzamide monohydrobromide Form A (=Form A) at the tested conditions.

[4] = Solubility in water by HPLC-analysis
[5] = Stability in water solutions (pH not adjusted), HPLC assay
Text: as §1

[6] = Stability of solution in 0.1 M HCl, pH 1.1, HPLC assay
Text: as §1

[7] = daylight RT, 14 days, % of start
[8] = daylight RT, 23 days, % of start

Solution in 0.1 mM HCl, pH 4.1, assay ([1]; 5° C., 8 days, % of start): 100% | Solution in 0.1 mM HCl, pH 4.1, assay ([1]; 5° C., 14 days, % of start): 100% | Solution in 0.1 mM HCl, pH 4.1, assay ([1]; 5° C., 23 days, % of start): 100% | Solution in 0.1 mM HCl, pH 4.1, assay ([1]; 5° C., Start): 0.0490 mg base/ml | Solution in 0.1 mM HCl, pH 4.1, assay ([1]; 5° C., Start, % of start): (100%) | Solution in 0.1 mM HCl, pH 4.1, assay ([1]; 60° C., 2 days, % of start): 97% | Solution in 0.1 mM HCl, pH 4.1, assay ([1]; 60° C., 8 days, % of start): 93% | Solution in 0.1 mM HCl, pH 4.1, assay ([1]; 60° C., 14 days, % of start): 90% | Solution in 0.1 mM HCl, pH 4.1, assay ([1]; 60° C., 23 days, % of start): 81% | Solution in 0.1 mM HCl, pH 4.1, assay ([1]; 60° C., Start): 0.0490 mg base/ml | Solution in 0.1 mM HCl, pH 4.1, assay ([1]; 60° C., Start, % of start): (100%) | Solution in 0.1 mM HCl, pH 4.1, assay ([1]; Dark RT, 8 days, % of start): 99% | Solution in 0.1 mM HCl, pH 4.1, assay ([1]; Dark RT, 14 days, % of start): 99% | Solution in 0.1 mM HCl, pH 4.1, assay ([1]; Dark RT, 23 days, % of start): 98% | Solution in 0.1 mM HCl, pH 4.1, assay ([1]; Dark RT, Start): 0.0490 mg base/ml | Solution in 0.1 mM HCl, pH 4.1, assay ([1]; Dark RT, Start, % of start): (100%) | Solution in 0.1 mM HCl, pH 4.1, assay [1, 7]: 99% | Solution in 0.1 mM HCl, pH 4.1, assay [1, 8]: 97% | Solution in 0.1 mM HCl, pH 4.1, assay ([1]; daylight RT, Start): 0.0490 mg base/ml | Solution in 0.1 mM HCl, pH 4.1, assay ([1]; daylight RT, Start, % of start): (100%) | stability in solution in words ([1]; pH 4.1, except at 60° C.): good | water sorbed as measured by dynamic vapour sorption (DVS) ([2]; 80% RH and 25° C.): 0,8% | hygroscopicity / water uptake in words [2]: non-hygroscopic | HPLC Purity (100% - related substances) ([3]; 90° C., 2 days): 99.6% | HPLC Purity (100% - related substances) ([3]; 90° C., 8 days): 99.6% | HPLC Purity (100% - related substances) ([3]; 90° C., 14 days): 99.5% | HPLC Purity (100% - related substances) ([3]; 90° C., 21 days): 99.6% | HPLC Purity (100% - related substances) ([3]; 90° C., 30 days): 99.4% | HPLC Purity (100% - related substances) ([3]; 90° C., Start): 99.7% | HPLC Purity (100% - related substances) ([3]; daylight, RT, 8 days): 99.6% | HPLC Purity (100% - related substances) ([3]; daylight, RT, 14 days): 99.5% | HPLC Purity (100% - related substances) ([3]; daylight, RT, 21 days): 99.5% | HPLC Purity (100% - related substances) ([3]; daylight, RT, 30 days): 99.5% | HPLC Purity (100% - related substances) ([3]; daylight, RT, Start): 99.7% | stability of bulk substance in words ([3]; in daylight and at 90° C.): very stable | solubility in water in words [4]: satisfactory | solubility in water ([4]; as the free base by HPLC-analysis): 6400 µg/mL | Stability in water solutions, assay ([5]; 5° C., 8 days, % of start): 101% | Stability in water solutions, assay ([5]; 5° C., 14 days, % of start): 100% | Stability in water solutions, assay ([5]; 5° C., 23 days, % of start): 99% | Stability in water solutions, assay ([5]; 5° C., Start): 0.0248 mg base/ml | Stability in water solutions, assay ([5]; 5° C., Start, % of start): (100%) | Stability in water solutions, assay ([5]; 60° C., 2 days, % of start): 84% | Stability in water solutions, assay ([5]; 60° C., 8 days, % of start): 81% | Stability in water solutions, assay ([5]; 60° C., 14 days, % of start): 76% | Stability in water solutions, assay ([5]; 60° C., 23 days, % of start): 82% | Stability in water solutions, assay ([5]; 60° C., Start): 0.0248 mg base/ml | Stability in water solutions, assay ([5]; 60° C., Start, % of start): (100%) | stability in pure water solution, comparison in words ([5]; 60° C., pH not adjusted): less stable than the Base | Stability in water solutions, assay ([5]; Dark RT, 8 days, % of start): 99% | Stability in water solutions, assay ([5]; Dark RT, 14 days, % of start): 99% | Stability in water solutions, assay ([5]; Dark RT, 23 days, % of start): 97% | Stability in water solutions, assay ([5]; Dark RT, Start): 0.0248 mg base/ml | Stability in water solutions, assay ([5]; Dark RT, Start, % of start): (100%) | Stability in water solutions, assay ([5]; daylight RT, 8 days, % of start): 100% | Stability in water solutions, assay [5, 7]: 101% | Stability in water solutions, assay [5, 8]: 100% | Stability in water solutions, assay ([5]; daylight RT, Start): 0.0248 mg base/ml | Stability in water solutions, assay ([5]; daylight RT, Start, % of start): (100%) | Solution in 0.1 M HCl, pH 1.1, assay ([6]; 5° C., 8 days, % of start): 100% | Solution in 0.1 M HCl, pH 1.1, assay ([6]; 5° C., 14 days, % of start): 100% | Solution in 0.1 M HCl, pH 1.1, assay ([6]; 5° C., 23 days, % of start): 98% | Solution in 0.1 M HCl, pH 1.1, assay ([6]; 5° C., Start): 0.504 mg base/ml | Solution in 0.1 M HCl, pH 1.1, assay ([6]; 5° C., Start, % of start): (100%) | Solution in 0.1 M HCl, pH 1.1, assay ([6]; 60° C., 2 days, % of start): 100% | Solution in 0.1 M HCl, pH 1.1, assay ([6]; 60° C., 8 days, % of start): 97% | Solution in 0.1 M HCl, pH 1.1, assay ([6]; 60° C., 14 days, % of start): 95% | Solution in 0.1 M HCl, pH 1.1, assay ([6]; 60° C., 23 days, % of start): 88% | Solution in 0.1 M HCl, pH 1.1, assay ([6]; 60° C., Start): 0.504 mg base/ml | Solution in 0.1 M HCl, pH 1.1, assay ([6]; 60° C., Start, % of start): (100%) | Solution in 0.1 M HCl, pH 1.1, assay ([6]; Dark RT, 8 days, % of start): 101% | Solution in 0.1 M HCl, pH 1.1, assay ([6]; Dark RT, 14 days, % of start): 99% | Solution in 0.1 M HCl, pH 1.1, assay ([6]; Dark RT, 23 days, % of start): 98% | Solution in 0.1 M HCl, pH 1.1, assay ([6]; Dark RT, Start): 0.504 mg base/ml | Solution in 0.1 M HCl, pH 1.1, assay ([6]; Dark RT, Start, % of start): (100%) | Solution in 0.1 M HCl, pH 1.1, assay [6, 7]: 100% | Solution in 0.1 M HCl, pH 1.1, assay [6, 8]: 98% | Solution in 0.1 M HCl, pH 1.1, assay ([6]; daylight RT, Start): 0.504 mg base/ml | Solution in 0.1 M HCl, pH 1.1, assay ([6]; daylight RT, Start, % of start): (100%) | stability in solution in words ([6]; pH 1.1, except at 60° C.): good
SMILES: Br.Cc1ccc(N2CCN(C)CC2)c2c1CC[C@@H](NC(=O)c1ccc(N3CCOCC3)cc1)C2 [Form A, (R)-N-[5-methyl-8-(4-methylpiperazin-1-yl)-1,2,3,4-tetrahydro-2-naphtyl]-4-morpholinobenzamide monohydrobromide]

hygroscopicity / water uptake in words [2]: readily resorbs water again
SMILES: Br.Cc1ccc(N2CCN(C)CC2)c2c1CC[C@@H](NC(=O)c1ccc(N3CCOCC3)cc1)C2 [Form B, (R)-N-[5-methyl-8-(4-methylpiperazin-1-yl)-1,2,3,4-tetrahydro-2-naphtyl]-4-morpholinobenzamide monohydrobromide]
